Patent publication US20230355566A1, “POTENTIATION OF HELMINTH TREATMENT” (Elanco Tiergesundheit AG, priority 2019, published 2023)

What was measured:
[1] = test system: Fasciola hepatica (Sunny Corner isolate, Fashep-66), immature stage; test: Efficacy and synergy against immature stage of Fasciola hepatica in experimentally infected sheep (Example 3); assay type: in vivo; conditions: closantel 3.75 mg/kg, combination 40 and 3.75 mg/kg; for % Efficacy using arithmetic mean / % Efficacy using geometric mean: single oral treatment day 42, diamphenethide 40 mg/kg, vs untreated control; for Fluke Count, arithmetic mean / Fluke Count, geometric mean: single oral treatment day 42 after infection, diamphenethide 40 mg/kg, live fluke in liver day 91
Method: In the following examples, all animals were confirmed free of infection with F. hepatica and found clinically healthy by a veterinarian prior to enrollment in the study. Doses were administered orally from suitably sized disposable syringes. The fluke counts and body weights were log-transformed (after adding a constant of 1 to the fluke counts only) and the distribution of the transformed data checked to see if they satisfied the assumption of normal distribution. Differences between treatment groups were analyzed by analysis of variance methods (ANOVA), as the assumptions of normal distribution were satisfied for log-transformed fluke count and log-transformed bodyweight, as well as for (untransformed) fluke measurements. Arithmetic […]), geometric […]), median and ranges were summarized for fluke counts, fluke measurements and bodyweight. A constant of one was applied for calculation of geometric means of fluke counts. The percentage efficacy for each treated group was calculated as follows: […] where FCC is the arithmetic mean fluke count of the control group and FCT is the arithmetic mean fluke count of the treated group. […] Note that expected synergy is defined as: […] Administered Concurrently with Closantel Against the Immature Stage of Fasciola hepatica Infections in Sheep This study was to assess the efficacy of […] (40 mg/kg) given concurrently with closantel (3.75 mg/kg), […] alone (40 mg/kg), and closantel alone (3.75 mg/kg) against F. hepatica in sheep (3-4 month Merino lambs) with treatment on day 42. This was a controlled, blinded, randomized study. On day 0, the sheep were experimentally infected with a single isolate of approximately 200 Sunny Corner ([…]-66) isolate F. hepatica metacercariae. The required number of […] up in carboxymethyl cellulose. Syringes were checked post-infection for retained […]. The infection was administered orally and each infective dose was followed by water administered orally. The sheep were randomized into treatment groups on the basis of day 41 body weight and allocated to groups as denoted in Table 3.1. Body weight was determined one day prior to treatment. All treatments were measured by volume and rounded to the nearest 0.1 mL. On day 42, and before feeding, the individual animals were treated once only with the treatment in Table 3.1. Once the animals had been treated they were returned to their pens and fed within one hour. Untreated control animals were also fed at this time. The liver with gall bladder and bile ducts intact were recovered from each animal on day 91 and processed for F. hepatica counts. The assessment of efficacy was based on the number of live fluke removed from the liver.

liver flukes = conditions: cited from earlier work
[2] = test system: Fasciola hepatica (Oberon isolate, Fashep-65), early immature stage; test: Efficacy against early immature stage of Fasciola hepatica in experimentally infected sheep (Example 2); assay type: in vivo; conditions: closantel 10 mg/kg, combination 60 and 10 mg/kg
Method: In the following examples, all animals were confirmed free of infection with F. hepatica and found clinically healthy by a veterinarian prior to enrollment in the study. Doses were administered orally from suitably sized disposable syringes.
The fluke counts and body weights were log-transformed (after adding a constant of 1 to the fluke counts only) and the distribution of the transformed data checked to see if they satisfied the assumption of normal distribution. Differences between treatment groups were analyzed by analysis of variance methods (ANOVA), as the assumptions of normal distribution were satisfied for log-transformed fluke count and log-transformed bodyweight, as well as for (untransformed) fluke measurements.
Arithmetic means (Amean), geometric means (Gmean), median and ranges were summarized for fluke counts, fluke measurements and bodyweight. A constant of one was applied for calculation of geometric means of fluke counts.
The percentage efficacy for each treated group was calculated as follows:
% Efficacy=100×(FCC−FCT)/FCC
where FCC is the arithmetic mean fluke count of the control group and FCT is the arithmetic mean fluke count of the treated group. The formula was also applied using mean geometric fluke counts; these were calculated using log transformed data with 1 added as a constant to each fluke count and then subtracted following transformation.
Efficacy of Diamphenethide in Combination with Closantel in Oral Formulations Against the Early Immature Stage of Fasciola hepatica in Sheep
This study was to assess the efficacy of diamphenethide (60 mg/kg) given concurrently with closantel (10 mg/kg), diamphenethide alone (60 mg/kg), and closantel alone (10 mg/kg) against F. hepatica in sheep with treatment on day 14. This was a controlled, blinded, randomized study using […] Merino lambs.
On day 0, the sheep were experimentally infected with a target of 87 Oberon isolate (Fashep-65) F. hepatica metacercariae. The required number of metacercariae were prepared for infection in a water and 4% carboxymethylcellulose solution. Each infective dose was followed by water administered orally.
The sheep were randomized into treatment groups on the basis of day 11 body weight and allocated to groups as denoted in Table 2.1.
Body weight was determined on day 11 and doses were measured by volume and rounded to the nearest 0.1 mL. On day 14, and before feeding, the individual animals were treated once only with the Treatment in Table 2.1. Once the animals had been treated they were returned to their pens and fed within one hour. Untreated control animals were also fed at this time.
The liver with gall bladder and common bile duct intact were recovered on day 91 or 92 from each animal and processed for F. hepatica counts. […]

[3] = deacylation to DAMD; cited from earlier work
[4] = single oral treatment day 14, diamphenethide 60 mg/kg, vs untreated control
[5] = single oral treatment day 14 after infection, diamphenethide 60 mg/kg, live fluke in liver day 91 or 92

SMILES | % Efficacy using arithmetic mean [1] [%] | % Efficacy using geometric mean [1] [%] | Fluke Count, arithmetic mean [1] | Fluke Count, geometric mean [1] | Activity against early immature flukes (liver flukes; flukes up to 6 weeks of age) | Activity against flukes as they develop to maturity (liver flukes; maturing flukes) | % Efficacy using arithmetic mean [2, 4] [%] | % Efficacy using geometric mean [2, 4] [%] | Fluke Count, arithmetic mean [2, 5] | Fluke Count, geometric mean [2, 5] | Metabolism [3]
Cc1cc(C(C#N)c2ccc(Cl)cc2)c(Cl)cc1NC(=O)c1cc(I)cc(I)c1O (stereo not drawn) [Closantel, N-[5-chloro-4-[(4-chlorophenyl)cyanomethyl]-2-methylphenyl]-2-hydroxy-3,5-diiodobenzamide] | 40.1 | 40.7 | 54.0 | 51.6 |  |  |  |  |  |  | 
CC(=O)Nc1ccc(OCCOCCOc2ccc(NC(C)=O)cc2)cc1 [Diamphenethide, N-[4-[2-[2-(4-acetamidophenoxy)ethoxy]ethoxy]phenyl]acetamide] | 36.1 | 41.5 | 57.6 | 50.9 | highly effective | progressively lower activity | 98.3 | 98.4 | 0.3 | 0.3 | rapidly metabolized by deacylation
